Experimental data from patent US20070231260A1, “Transporter-targeted methods of diagnosis and treatment” (priority 2005, published 2007).

Test system: cells that overexpress MCT1
Assay: Cytotoxicity (GI50) of bromopyruvate in cells not expressing MCT1 (-TET) and induced to express MCT1 (+TET)
Type: cell-based
Conditions: GI50, +TET vs -TET cells; FIG. 2

O=C(O)C(=O)CBr [bromopyruvate, Bromopyruvate]
fold higher toxicity to cells that overexpress MCT1: more than 20 times
